One assay concerns the target KRAS Q61H (Homo sapiens (Human), UniProt P01116+P62937, Q61H). Description: Ras-Raf (BRAF RBD) disruption / FRET / MOA assay, KRAS Q61H. It is filed as biochemical. The following applies: Ras-Raf disruption/FRET/MOA assay; class symbols; read-out: KRAS Q61H FRET data IC50. Summed up:
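TR-FRET disruption of nucleotide-loaded Ras binding to BRAF RBD via compound-driven ternary complex with cyclophilin A. Compound as 10-point 3-fold series from 30 μM final, 3 h at 25° C, then anti-His Eu-W1024 (10 nM) and anti-GST allophycocyanin (50 nM) for 1.5 h. IC50 from decreased FRET ratio versus DMSO.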

In assay [1] the test system is NCI-H358 cells (K-Ras G12C). Description: Potency assay: pERK in NCI-H358 cells. Particulars: H358 KRAS G12C, read-out: pERK EC50. It is filed as cell-based, human. The method in brief: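 Compounds are dosed as ten 3-fold dilutions from a 10 mM DMSO stock, in duplicate, and left on cells for 4 h at 37 °C, 5% CO2. Phospho-ERK1/2 is then quantified by AlphaLISA SureFire Ultra or In-Cell Western, and IC50 is derived from a 4-parameter sigmoid against log concentration.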

The target of a further assay is K-Ras G12C (Homo sapiens (Human), UniProt P01116+P62937, G12C). Description: Ras-Raf (BRAF RBD) disruption / FRET / MOA assay, KRAS G12C. Particulars: KRAS G12C; Ras-Raf disruption/FRET/MOA assay; read-out: IC50* KRAS G12C FRET data. Format: biochemical. The method in brief: (§1)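 Ras:RAF disruption was scored as a fall in TR-FRET ratio relative to DMSO. Compound ranged in 3-fold steps over 10 points from 30 μM final; incubation ran 3 h at 25° C, detection antibodies a further 1.5 h. Reported as IC50.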

In another assay the target is NRAS G12C (Homo sapiens (Human), UniProt P01111+P62937, G12C). Description: Ras-Raf (BRAF RBD) disruption / FRET / MOA assay, NRAS G12C. Format: biochemical. Particulars: read-out: IC50* NRAS G12C FRET data. Summed up: as §1

“And” between values parts separate entries of the source, which are not always exact repeats. Equal values may be shown once. Read-outs that look alike come from different tables or passages of the source.

Sequence of K-Ras G12C (P01116-2 other isoform, or with tags, fused parts or gaps G12C): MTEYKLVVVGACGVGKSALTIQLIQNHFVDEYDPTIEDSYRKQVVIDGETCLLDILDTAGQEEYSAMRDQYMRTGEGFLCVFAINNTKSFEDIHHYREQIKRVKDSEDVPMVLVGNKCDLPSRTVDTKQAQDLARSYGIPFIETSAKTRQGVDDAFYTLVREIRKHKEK
Sequence of K-Ras G12C (P62937 whole entry): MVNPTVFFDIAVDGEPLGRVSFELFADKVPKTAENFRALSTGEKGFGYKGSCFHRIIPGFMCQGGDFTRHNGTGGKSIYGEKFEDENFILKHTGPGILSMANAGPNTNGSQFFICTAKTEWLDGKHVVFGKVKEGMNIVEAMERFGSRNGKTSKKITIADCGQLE
Sequence of KRAS Q61H (P01116-2 other isoform, or with tags, fused parts or gaps Q61H): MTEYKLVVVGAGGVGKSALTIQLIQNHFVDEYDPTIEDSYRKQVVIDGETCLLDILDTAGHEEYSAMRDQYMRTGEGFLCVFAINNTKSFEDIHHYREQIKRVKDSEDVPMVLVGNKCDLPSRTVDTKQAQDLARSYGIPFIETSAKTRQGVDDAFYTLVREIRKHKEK
Sequence of KRAS Q61H (P62937 whole entry): as the sequence (P62937 whole entry) above
Sequence of NRAS G12C (P01111 whole entry G12C): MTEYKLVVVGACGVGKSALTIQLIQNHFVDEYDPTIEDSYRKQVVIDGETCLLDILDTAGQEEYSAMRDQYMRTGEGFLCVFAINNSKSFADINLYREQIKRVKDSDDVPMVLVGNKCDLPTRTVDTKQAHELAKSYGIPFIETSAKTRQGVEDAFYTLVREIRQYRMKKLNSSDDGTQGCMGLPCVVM
Sequence of NRAS G12C (P62937 whole entry): as the sequence (P62937 whole entry) above

As usually defined, the IC50 is the concentration that inhibits the measured activity by half. Broadly, the EC50 is the concentration that produces a half-maximal response. As to `C=CC(=O)N1CC[C@H](C(=O)N(C)[C@H](C(=O)N[C@H]2Cc3cc(O)cc(c3)-c3ccc4c(c3)c(c(-c3cccnc3[C@H](CC)OC)n4CC)CC(C)(C)COC(=O)[C@@H]3CCCN(N3)C2=O)C(C)C)C1` (atropisomer, axis not shown) [Example A181], the IC50 at KRAS Q61H is 10 to 100 nM; at K-Ras G12C, 10 to 100 nM and 100 to 1000 nM; at NRAS G12C, 10 to 100 nM and 100 to 1000 nM. For the same compound, the EC50 in assay [1] (Homo sapiens, NCI-H358) was < 5 µM.

Regarding `C=CC(=O)N1CC[C@H](C(=O)N(C)[C@H](C(=O)N[C@H]2Cc3nc(ns3)-c3ccc4c(c3)c(c(-c3cccnc3[C@H](C)OC)n4CC)CC(C)(C)COC(=O)[C@@H]3CCCN(N3)C2=O)C(C)C)C1` (atropisomer, axis not shown) [Example A202], the IC50 on KRAS Q61H, on K-Ras G12C and at NRAS G12C was 1000 to 10000 nM in each case. The EC50 in assay [1] (Homo sapiens, NCI-H358) was < 5 µM.

In the case of `C=CC(=O)N1CC[C@H](C(=O)N(C)[C@H](C(=O)N[C@H]2Cc3cc(O)cc(c3)-c3ccc4c(c3)c(c(-c3cccnc3[C@@H](OC)C3CC3)n4CC)CC(C)(C)COC(=O)[C@@H]3CCCN(N3)C2=O)C(C)C)C1` (atropisomer, axis not shown) [Example A207], the IC50 at KRAS Q61H, on K-Ras G12C and at NRAS G12C was 10 to 100 nM each time. For the same compound, the EC50 in assay [1] was < 5 µM.

On to `C=CC(=O)N1CC[C@H](C(=O)N(C)[C@H](C(=O)N[C@H]2Cc3cc(O)cc(c3)-c3ccc4c(c3)c(c(-c3cccnc3[C@@H]3CCCO3)n4CC)CC(C)(C)COC(=O)[C@@H]3CCCN(N3)C2=O)C(C)C)C1` (atropisomer, axis not shown) [Example A281], for which the IC50 on KRAS Q61H was 10 to 100 nM; on K-Ras G12C it was 10 to 100 nM and 100 to 1000 nM; at NRAS G12C, 10 to 100 nM and 100 to 1000 nM. Also, the concentration for a half-maximal effect (EC50) in assay [1] (Homo sapiens, NCI-H358) was < 5 µM.

On to `C=CC(=O)N1CC[C@H](C(=O)N(C)[C@H](C(=O)N[C@H]2Cc3nc(n(C)n3)-c3ccc4c(c3)c(c(-c3cccnc3[C@H](C)OC)n4CC)CC(C)(C)COC(=O)[C@@H]3CCCN(N3)C2=O)C(C)C)C1` (atropisomer, axis not shown) [Example A314], for which the IC50 on KRAS Q61H, on K-Ras G12C and on NRAS G12C was 100 to 1000 nM each time. Also, in assay [1] (Homo sapiens, NCI-H358), the EC50 is < 5 µM.

`C=CC(=O)N1CC[C@H](C(=O)N(C)[C@H](C(=O)N[C@H]2Cc3csc(n3)-c3ccc4c(c3)c(c(-c3cccnc3[C@H](C)OC)n4CC)CC(C)(C)COC(=O)[C@@H]3CCCN(N3)C2=O)C(C)C)C1` (atropisomer, axis not shown) [Example A330]: the IC50 at KRAS Q61H, on K-Ras G12C and at NRAS G12C was 100 to 1000 nM in each case. The EC50 in assay [1] (Homo sapiens, NCI-H358) was < 5 µM.

In the case of `C=CC(=O)N1CC[C@]2(C1)CN(C(=O)N(C)[C@H](C(=O)N[C@H]1Cc3nc(cs3)-c3ccc4c(c3)c(c(-c3cccnc3[C@H](C)OC)n4CC)CC(C)(C)COC(=O)[C@@H]3CCCN(N3)C1=O)C(C)C)CCO2` (atropisomer, axis not shown) [Example A354], the IC50 was in the range of 10 to 100 nM on KRAS Q61H, 100 to 1000 nM on K-Ras G12C and 10 to 100 nM at NRAS G12C. Also, the EC50 in assay [1] (Homo sapiens, NCI-H358) is < 5 µM.

Take `C=CC(=O)N1CC[C@@]2(C1)OCN([C@H](C(=O)N[C@H]1Cc3cccc(c3)-c3ccc4c(c3)c(c(-c3cccnc3[C@H](C)OC)n4CC)CC(C)(C)COC(=O)[C@@H]3CCCN(N3)C1=O)C(C)C)C2=O` (atropisomer, axis not shown) [Example A358]: the IC50 at KRAS Q61H, at K-Ras G12C and at NRAS G12C was 100 to 1000 nM throughout. Further, the EC50 in assay [1] (Homo sapiens, NCI-H358) was < 5 µM.

For the compound `CO[C@@H](C)c1ncccc1-c1c2c3cc(ccc3n1CC(F)(F)F)-c1csc(n1)C[C@H](NC(=O)CCOC1CN(C(=O)C#CC(C)(C)N3CCC3)C1)C(=O)N1CCC[C@H](N1)C(=O)OCC(C)(C)C2` (atropisomer, axis not shown) [Example A363], the IC50 on KRAS Q61H fell in the range of 1000 to 10000 nM; on K-Ras G12C it was 10 to 100 nM; at NRAS G12C, 10 to 100 nM. For the same compound, the EC50 in assay [1] (Homo sapiens, NCI-H358) is < 5 µM.

In the case of `C=CC(=O)N(C)C[C@H]1CCN1C(=O)N(C)[C@H](C(=O)N[C@H]1Cc2nc(cs2)-c2ccc3c(c2)c(c(-c2cccnc2[C@H](C)OC)n3CC)CC(C)(C)COC(=O)[C@@H]2CCCN(N2)C1=O)C(C)C` (atropisomer, axis not shown) [Example A369], the IC50 on KRAS Q61H, on K-Ras G12C and at NRAS G12C was 100 to 1000 nM in each case. In addition, in assay [1] (Homo sapiens, NCI-H358), the EC50 is < 5 µM.

Regarding `C=CC(=O)N1CC[C@H](C(=O)N(C)[C@H](C(=O)N[C@H]2Cc3cccc(c3)-c3ccc4c(c3)c(c(-c3cccnc3[C@H](C)OC)n4CC)CC(C)(C)COC(=O)[C@@H]3CCCN(N3)C2=O)C(C)C)[C@H]1C` (atropisomer, axis not shown) [Example A373], the IC50 at KRAS Q61H, at K-Ras G12C and on NRAS G12C was 100 to 1000 nM throughout. For the same compound, the EC50 in assay [1] (Homo sapiens, NCI-H358) was < 5 µM.

Regarding `CO[C@@H](C)c1ncccc1-c1c2c3cc(ccc3n1CC(F)(F)F)-c1cc(cc(C(F)F)c1)C[C@H](NC(=O)[C@@H](COC1CN(C(=O)C#CC(C)(C)N(C)C)C1)C(C)C)C(=O)N1CCC[C@H](N1)C(=O)OCC(C)(C)C2` (atropisomer, axis not shown) [Example A374], the IC50 is > 10000 nM on KRAS Q61H, 100 to 1000 nM at K-Ras G12C and 100 to 1000 nM on NRAS G12C. In addition, the EC50 in assay [1] (Homo sapiens, NCI-H358) was < 5 µM.

Turning to `CCn1c(-c2cccnc2[C@H](C)OC)c2c3cc(ccc31)-c1csc(n1)C[C@H](NC(=O)CCO[C@H]1CCN(C(=O)C#CC(C)(C)N3CCC3)C1)C(=O)N1CCC[C@H](N1)C(=O)OCC(C)(C)C2` (atropisomer, axis not shown) [Example A381], the IC50 at KRAS Q61H was 1000 to 10000 nM; at K-Ras G12C, < 10 nM; on NRAS G12C it was 10 to 100 nM. For the same compound, the EC50 in assay [1] (Homo sapiens, NCI-H358) is < 5 µM.

As for `C=CC(=O)N(C)C[C@@H]1CCN1C(=O)N(C)[C@H](C(=O)N[C@H]1Cc2nc(cs2)-c2ccc3c(c2)c(c(-c2cccnc2[C@H](C)OC)n3CC)CC(C)(C)COC(=O)[C@@H]2CCCN(N2)C1=O)C(C)C` (atropisomer, axis not shown) [Example A390], the IC50 at KRAS Q61H, at K-Ras G12C and at NRAS G12C was 100 to 1000 nM throughout. Further, the EC50 in assay [1] (Homo sapiens, NCI-H358) is < 5 µM.

Turning to `C=CC(=O)N1CC[C@H](C(=O)N(C)[C@H](C(=O)N[C@H]2Cc3cccc(c3)-c3ccc4c(c3)c(c(-c3cc(C5CN(C)C5)cnc3[C@H](C)OC)n4CC)CC(C)(C)COC(=O)[C@@H]3CCCN(N3)C2=O)C(C)C)C1` (atropisomer, axis not shown) [Example A392], the results for the IC50 on KRAS Q61H, at K-Ras G12C and at NRAS G12C were 1000 to 10000 nM, 100 to 1000 nM and 100 to 1000 nM, respectively. Moreover, the EC50 in assay [1] (Homo sapiens, NCI-H358) is < 5 µM.

`C=CC(=O)N1CC[C@H](C(=O)N(C)[C@H](C(=O)N[C@H]2Cc3cccc(n3)-c3ccc4c(c3)c(c(-c3cccnc3[C@H](C)OC)n4CC)CC(C)(C)COC(=O)[C@@H]3CCCN(N3)C2=O)C(C)C)C1` (atropisomer, axis not shown) [Example A442]: the IC50 at KRAS Q61H was in the range of 1000 to 10000 nM; at K-Ras G12C, 100 to 1000 nM; at NRAS G12C, 100 to 1000 nM. Also, in assay [1] (Homo sapiens, NCI-H358), the EC50 was < 5 µM.

On to `C=CC(=O)N1CC[C@H](C(=O)N(C)[C@H](C(=O)N[C@H]2Cc3cccc(c3)-c3ccc4c(c3)c(c(-c3cccnc3[C@H](C)OC)n4CC3COC3)CC(C)(C)COC(=O)[C@@H]3CCCN(N3)C2=O)C(C)C)C1` (atropisomer, axis not shown) [Example A481], for which the 50% inhibitory concentration (IC50) on KRAS Q61H lay within 1000 to 10000 nM; on K-Ras G12C it was 100 to 1000 nM; at NRAS G12C it was 100 to 1000 nM. In addition, in assay [1] (Homo sapiens, NCI-H358), the EC50 was < 5 µM.

(Values after patent US11566007B2, “Ras inhibitors” (Revolution Medicines, Inc., priority 2019, dated 2023).)
